Data set [1] deals with human neuroblastoma (SH-SY5Y) cells.
Data set [2] has the same test system. The source holds these as a separate data set.

In the case of `COc1ccc2[nH]cc(CCNC(C)=O)c2c1` [melatonin, reference compound], the “Reversion of cell damage” value in data set [1] (O/R (3 μM/4 μM) 24 h) is on record as “approximately 80%”. In addition, the “Cell viability with MLT” value in data set [1] (positive control against O/R, mean) was 82%.
For `NC1=N[C@H](O)[C@H]2[C@H]3O[C@]4(O)O[C@@H]([C@@H](O)[C@@]2(N1)[C@@H]4O)[C@]3(O)CO` [tetrodotoxin], in data set [2], the “Cell viability with TTX” value was found to be 85.41% and the “Neuroprotection against veratridine, in words” value is given as “almost wholly reverted the cellular damage”.
With `COc1ccc(C(=O)O[C@H]2CC[C@@]3(C)[C@@H]4CC[C@H]5[C@]6(O)C[C@H](O)[C@@]7(O)[C@@H](CN8C[C@@H](C)CC[C@H]8[C@@]7(C)O)[C@]6(O)C[C@@]53O[C@]24O)cc1OC` [veratridine], the “Cell viability, inducer alone (VTD)” value in data set [2] (veratridine 24 h, no peptide, untreated control 100, mean) is on record as 49.21%. Also, in data set [2] (veratridine, 24 h), the “Mortality rate compared with untreated cells” value turned out to be 50%.

Source of the values: PMC12655438, “Inhibitory Activity of Calcium and Sodium Ion Channels of Neurotoxic Protoplaythoa variabilis V-Shape Helical Peptide Analogs and Their Neuroprotective Effect In Vitro” (Pharmaceuticals, 2025).
